# Measured values published in patent US4795743A, “2'-deamino-2'-hydroxyistamycin Bo derivatives of low toxicity” (Zaidan Hojin Biseibutsu Kagaku Kenkyu Kai, priority 1986, dated 1989).
# Like-named read-outs stand apart in the source and are kept apart here.
# Tests used:
# [1] = tested on: Staphylococcus aureus Ap 01; experiment: Antibacterial spectrum, standard serial dilution method; format: cell-based; settings: AP01, 18 h, read-out: Minimum Growth Inhibitory Concentration
# [2] = tested on: Staphylococcus epidermidis 109; experiment: as above; format: cell-based; settings: Staphylococcus epidermidis, 109, 18 h, read-out: Minimum Growth Inhibitory Concentration
# [3] = tested on: Micrococcus flavus FDA 16; experiment: as above; format: cell-based; settings: read-out: Minimum Growth Inhibitory Concentration
# Sarcina lutea PCI 1001 = experiment: as above; format: cell-based; settings: Micrococcus luteus, read-out: Minimum Growth Inhibitory Concentration
# Bacillus anthracis = experiment: microbe, parasite or virus in culture; format: cell-based; settings: 18 h, read-out: Minimum Growth Inhibitory Concentration
# [4] = tested on: Bacillus subtilis PCI 219; experiment: Antibacterial spectrum, standard serial dilution method; format: cell-based; settings: PCI219; Bacillus subtilis PCI 219; Muller-Hinton medium, 37° C., 18 hours; read-out: Minimum Growth Inhibitory Concentration
# [5] = tested on: Bacillus cereus ATCC 1-702; experiment: as above; format: cell-based; settings: read-out: Minimum Growth Inhibitory Concentration
# [6] = tested on: Corynebacterium bovis 1810; experiment: as above; format: cell-based; settings: Corynebacterium bovis 1810; Muller-Hinton medium, 37° C., 18 hours; read-out: Minimum Growth Inhibitory Concentration
# Escherichia coli NIHJ = experiment: as above; format: cell-based; settings: 18 h, read-out: Minimum Growth Inhibitory Concentration
# Escherichia coli K-12 = experiment: as above; format: cell-based; settings: read-out: Minimum Growth Inhibitory Concentration
# [7] = tested on: Escherichia coli K-12 R388; experiment: as above; format: cell-based; settings: K12R388, 18 h, read-out: Minimum Growth Inhibitory Concentration
# [8] = tested on: Escherichia coli K-12 ML1629; experiment: as above; format: cell-based; settings: K12ML1629, E. coli K-12 ML1629, Muller-Hinton medium, 37° C., 18 hours, read-out: Minimum Growth Inhibitory Concentration
# [9] = tested on: Escherichia coli K-12 ML1410; experiment: as above; format: cell-based; settings: K12ML1410, 18 h, read-out: Minimum Growth Inhibitory Concentration
# [10] = tested on: Escherichia coli K-12 ML1410 R81; experiment: as above; format: cell-based; settings: K12ML1410R81, 18 h, read-out: Minimum Growth Inhibitory Concentration
# Escherichia coli JR225 = experiment: as above; format: cell-based; settings: JR225, 18 h, read-out: Minimum Growth Inhibitory Concentration
# [11] = tested on: Klebsiella Pneumoniae PCI 602; experiment: as above; format: cell-based; settings: Klebsiella pneumoniae, 18 h, read-out: Minimum Growth Inhibitory Concentration
# [12] = tested on: Klebsiella pneumoniae 22 = 3038; experiment: as above; format: cell-based; settings: Klebsiella pneumoniae, 18 h, read-out: Minimum Growth Inhibitory Concentration
# [13] = tested on: Shibella flexneri 4b JS11811; experiment: as above; format: cell-based; settings: 18 h, read-out: Minimum Growth Inhibitory Concentration
# Shigella sonnei = experiment: as above; format: cell-based; settings: Muller-Hinton medium, 37° C., 18 hours, read-out: Minimum Growth Inhibitory Concentration
# Salmonella typhi T-63 = experiment: as above; format: cell-based; settings: Salmonella enterica, 18 h, read-out: Minimum Growth Inhibitory Concentration
# [14] = tested on: Salmonella enteritidis 1891; experiment: as above; format: cell-based; settings: Salmonella enterica, Muller-Hinton medium, 37° C., 18 hours, read-out: Minimum Growth Inhibitory Concentration
# Proteus rettgeri GN466 = experiment: as above; format: cell-based; settings: Providencia rettgeri, read-out: Minimum Growth Inhibitory Concentration
# Serratia sp. SOU = experiment: as above; format: cell-based; settings: read-out: Minimum Growth Inhibitory Concentration
# Serratia sp. 4 = experiment: as above; format: cell-based; settings: Muller-Hinton medium, 37° C., 18 hours, read-out: Minimum Growth Inhibitory Concentration
# [15] = tested on: Pseudomonas aeruguinosa A3; experiment: as above; format: cell-based, Pseudomonas aeruginosa; settings: read-out: Minimum Growth Inhibitory Concentration
# [16] = tested on: Pseudomonas aeruguinosa No.12; experiment: as above; format: cell-based, Pseudomonas aeruginosa; settings: Muller-Hinton medium, 37° C., 18 hours, read-out: Minimum Growth Inhibitory Concentration
# [17] = tested on: Pseudomonas aeruguinosa H9; experiment: as above; format: cell-based, Pseudomonas aeruginosa; settings: read-out: Minimum Growth Inhibitory Concentration
# [18] = tested on: Pseudomonas aeruguinosa TI-13; experiment: as above; format: cell-based, Pseudomonas aeruginosa; settings: read-out: Minimum Growth Inhibitory Concentration
# [19] = tested on: Pseudomonas aeruguinosa GN315; experiment: as above; format: cell-based, Pseudomonas aeruginosa; settings: read-out: Minimum Growth Inhibitory Concentration
# [20] = tested on: Pseudomonas aeruguinosa 99; experiment: as above; format: cell-based, Pseudomonas aeruginosa; settings: Muller-Hinton medium, 37° C., 18 hours, read-out: Minimum Growth Inhibitory Concentration
# [21] = tested on: Pseudomonas aeruguinosa 21-75; experiment: as above; format: cell-based, Pseudomonas aeruginosa; settings: 2175, Muller-Hinton medium, 37° C., 18 hours, read-out: Minimum Growth Inhibitory Concentration
# [22] = tested on: Pseudomonas aeruguinosa PST1; experiment: as above; format: cell-based, Pseudomonas aeruginosa; settings: Muller-Hinton medium, 37° C., 18 hours, read-out: Minimum Growth Inhibitory Concentration
# [23] = tested on: Pseudomonas aeruguinosa K-Ps 102; experiment: as above; format: cell-based, Pseudomonas aeruginosa; settings: read-out: Minimum Growth Inhibitory Concentration
SMILES,MIC [1],MIC [2],MIC (Bacillus anthracis),MIC [4],MIC [6],MIC (Escherichia coli NIHJ),MIC [7],MIC [8],MIC [9],MIC [10],MIC (Escherichia coli JR225),MIC [11],MIC [12],MIC [13],MIC (Shigella sonnei),MIC (Salmonella typhi T-63),MIC [14],MIC (Serratia sp. 4),MIC [16],MIC [20],other results
"CNCC1CCC(O)C(OC2C(N)CC(OC)C(N(C)C(=O)CN)C2O)O1 (stereo not drawn) [Compound No. 1, 2'-Deamino-2'-hydroxyistamycin B]",6.25 µg/mL,6.25 µg/mL,12.5 µg/mL,3.13 µg/mL,3.13 µg/mL,1.56 µg/mL,3.13 µg/mL,6.25 µg/mL,6.25 µg/mL,6.25 µg/mL,3.13 µg/mL,6.25 µg/mL,12.5 µg/mL,12.5 µg/mL,6.25 µg/mL,1.56 µg/mL,6.25 µg/mL,> 100 µg/mL,100 µg/mL,> 100 µg/mL,"MIC ([3]; FDA16, Micrococcus flavus FDA 16, Muller-Hinton medium, 37° C., 18 hours): 25 µg/mL; MIC (Sarcina lutea PCI 1001; PCI1001, Sarcina lutea PCI 1001, Muller-Hinton medium, 37° C., 18 hours): 3.13 µg/mL; MIC ([5]; ATCC1, Bacillus cereus ATCC 1-702, Muller-Hinton medium, 37° C., 18 hours): 50 µg/mL; MIC (Escherichia coli K-12; K12, E. coli K-12, Muller-Hinton medium, 37° C., 18 hours): 3.13 µg/mL; MIC (Proteus rettgeri GN466; Proteus rettgeri GN466, Muller-Hinton medium, 37° C., 18 hours): 3.13 µg/mL; MIC (Serratia sp. SOU; Serratia, 18 h): 6.25 µg/mL; MIC ([15]; Pseudomonas, A3, 18 h): 6.25 µg/mL; MIC ([17]; Pseudomonas aeruguinosa H9, Muller-Hinton medium, 37° C., 18 hours): > 100 µg/mL; MIC ([18]; TI13, Pseudomonas aeruguinosa TI-13, Muller-Hinton medium, 37° C., 18 hours): 100 µg/mL; MIC ([19]; Pseudomonas aeruguinosa GN315, Muller-Hinton medium, 37° C., 18 hours): 100 µg/mL; MIC [21]: > 100 µg/mL; MIC [22]: 100 µg/mL; MIC ([23]; KPS102, Pseudomonas aeruguinosa K-Ps 102, Muller-Hinton medium, 37° C., 18 hours): > 100 µg/mL"
"CNCC1CCC(O)C(OC2C(N)CC(O)C(N(C)C(=O)CN)C2O)O1 (stereo not drawn) [Compound No. 2, 2'-Deamino-2'-hydroxy-3-O-demethylistamycin B]",6.25 µg/mL,1.56 µg/mL,1.56 µg/mL,3.13 µg/mL,3.13 µg/mL,1.56 µg/mL,3.13 µg/mL,6.25 µg/mL,6.25 µg/mL,6.25 µg/mL,1.56 µg/mL,6.25 µg/mL,6.25 µg/mL,12.5 µg/mL,6.25 µg/mL,0.78 µg/mL,12.5 µg/mL,25 µg/mL,25 µg/mL,50 µg/mL,"MIC ([3]; Micrococcus flavus, FDA16, 18 h): 12.5 µg/mL; MIC (Sarcina lutea PCI 1001; PCI1001, 18 h): 1.56 µg/mL; MIC ([5]; Bacillus cereus, ATCC1, 18 h): 6.25 µg/mL; MIC (Escherichia coli K-12; K12, 18 h): 1.56 µg/mL; MIC (Proteus rettgeri GN466; GN466, 18 h): 1.56 µg/mL; MIC (Serratia sp. SOU; Serratia sp. SOU, Muller-Hinton medium, 37° C., 18 hours): 3.13 µg/mL; MIC ([15]; Pseudomonas aeruguinosa A3, Muller-Hinton medium, 37° C., 18 hours): 0.39 µg/mL; MIC ([17]; Pseudomonas, H9, 18 h): 12.5 µg/mL; MIC ([18]; Pseudomonas, TI13, 18 h): 12.5 µg/mL; MIC ([19]; Pseudomonas, GN315, 18 h): 12.5 µg/mL; MIC [21]: 25 µg/mL; MIC [22]: 25 µg/mL; MIC ([23]; Pseudomonas, KPS102, 18 h): 12.5 µg/mL"
